Patent US12133855B2, “Lipid-like nanocomplexes and uses thereof” (Trustees of Tufts College, priority 2018, dated 2024)

Tests used:
[1] = Thiol-triggered Nile red release; assay type: physicochemical
Experimental: (§1) Lipidoids were fabricated into nanoparticles for all delivery applications. Briefly, lipidoids were mixed with sodium acetate buffer (25 mM, pH 5.2), sonicated for 30 min in an ultrasonic bath, followed by another 30 min of vigorous vortexing. The as-prepared blank LNPs were stored at 4° C. For Cy5-RNA/LNP, mRNA/LNP and protein/LNP complexation, blank lipidoid nanoparticles were mixed with RNA molecules or (−30)GFP-Cre protein in PBS buffer (pH 7.4) following our previously reported procedures and incubated at room temperature for another 30 min before use. Typical procedures for Nile red encapsulation are as follows: 5 μL of Nile red stock solution in acetone was added into an empty vial, which was then placed in a vacuum oven to completely remove the organic solvent. Then, a predetermined amount of blank LNP stock solution (1.0 mg/mL) was added into the vial. The mixture was sonicated for 40 min in an ultrasonic bath and stirred overnight at room temperature. The final concentration of Nile red was adjusted to 6.6×10-7 mol L-1 and 6×10-7 mol L-1 for thiol triggered release study and cell incubation, respectively, by diluting with PBS as necessary. Typical procedures for CPT and DiO/DiI FRET pair encapsulation are as follows: 100 μL of DiO/DiI stock solution in MeOH was charged into an empty vial and placed in a vacuum oven to remove the organic solvent. Lipidoids (2.0 mg) in 200 μL of methanol were then added into the vial and stirred to produce a homogeneous solution. Then, 600 μL of DI water was added dropwise in 10 min with continuous stirring. The resulting mixture was dialyzed against DI water for 24 h (Thermo Scientific Slide-A-Lyzer Dialysis Cassette, MWCO=3500 Da), and fresh water was replaced every 4 h. Typical procedures for encapsulation of calcein and doxonorubicin hydrochloride are as follows: precalculated amounts of calcein or Dox stock solutions in DI water was diluted into 800 μL with sodium acetate buffer, and used as the selective solvents to trigger the self-assembly process of lipidoids in methanol (5 mg/mL), respectively. The unloaded calcein or Dox was removed by dialysis against DI water (Thermo Scientific Slide-A-Lyzer Dialysis Cassette, MWCO=3500 Da).
The reduction triggered release behavior of encapsulated cargoes was then studied by using nile red loaded 75-OCholB LNPs (NR/75-OCholB), taking advantage of the microenvironmental polarity sensitive photophysical property of nile red. […] In the meantime, 20 μM Cysteine treated NR/75-OCholB released 4.2% of nile red in 2 h and 6.9% in 6 h, which could be ascribed to the previously discussed minimal structural and morphological changes of the LNPs under the stimulus of low concentration of thiols (FIGS. 11A and 11C). […] Furthermore, the binding affinity of OCholB LNPs with negatively charged macromolecular cargo, Cy5-RNA, was examined. […] Additionally, similar to the responsiveness study, it is reasonable that the cargo release profiles could depend on both of the species and concentrations of the thiols-containing regents. Above all, OCholB LNPs loaded with cargoes are relatively stable in the presence of low concentration of thiols and the triggered release behaviors of cargo molecules with different physicochemical properties (hydrophobic/hydrophilic, low/high molecular weight, etc.) could be expected.

HeLa cells [2] = test: Internalization of calcein loaded nanoparticles; assay type: cell-based; details: 8 h of exposure
Experimental: The internalization kinetics and efficiencies of OCholB LNPs were then studied using NR loaded LNPs and HeLa cells. […] Next, all of the NR delivery efficiencies of eight OCholB LNPs were determined after 8 h of exposure. […] Representative fluorescent images of NR/LNPs (NR/75-OCholB, NR/76-OCholB and NR/77-OCholB) treated HeLa cells are shown in FIG. 12D, from which it is easily observed that NR was delivered into the cells and mainly distributed in cytoplasm, by OCholB LNPs. Next, the internalization of negatively charged hydrophilic fluorescent dye, calcein, was studied. […] Next, the use of OCholB LNPs for the intracellular delivery of macromolecular cargo was explored, using fluorescent recombinant (−30)GFP-Cre protein and HeLa-DsRed cells as the model system. […] Delivery efficiency was tested at a range of (−30)GFP-Cre protein concentrations (25, 50 and 100 nM), with a consistent lipid/protein ratio (i.e., delivery with the final lipid concentration of 1.7, 3.3, and 6.6 μg mL^−1 respectively). 33.2%, 43.8% and 74% of GFP positive (GFP^+) cells were recorded for (−30)GFP-Cre/Lpf2k treated cells with the concentration of (−30)GFP-Cre 25 nM, 50 nM and 100 nM, respectively. […]

HeLa cells [3] = test: Cytotoxicity of anticancer drug loaded nanoparticles (MTT); details: Dox series; 8 h of exposure, MTT after 48 h of incubation
Experimental: After 24 h of incubation at 37° C., 5% CO2, Dox, CPT or Oxa loaded nanoparticles were added to the cells and incubated for 8 h followed by media change. The cells were then incubated for another 40 h before cell viability analysis.
Cell viabilities of HeLa and HeLa-DsRed were measured using the standard MTT assay. In a 96-well plate, after incubating HeLa or HeLa-DsRed cells with blank or cargo-loaded nanoparticles, the MTT reagent (5 mg/mL, in 30 μL PBS buffer) was added and the cells were incubated for another 4 h at 37° C. The cell culture media was then carefully removed and 200 μL of DMSO was added to each well. The DMSO solution was then transferred into a clean 96-well plate and the absorbance at 570 nm was recorded by a microplate reader. All experiments were performed in quadruplicate.
Dose-dependent cytotoxicity was then examined.

Cy5-RNA = test: RNA binding test of lipidoid nanoparticles; assay type: physicochemical
Experimental: as §1, with “The unloaded calcein or Dox was removed by dialysis against DI water (Thermo Scientific Slide-A-Lyzer Dialysis Cassette, MWCO=3500 Da).” left out

[4] = 10/1 weight ratio, DTT (10 mM, 24 h) treated nanoparticles

## CCN(CC)CCN(CCC(=O)OCCSSCCNC(=O)OC1CCC2(C)C(=CCC3C2CCC2(C)C(C(C)CCCC(C)C)CCC32)C1)CCC(=O)OCCSSCCNC(=O)OC1CCC2(C)C(=CCC3C2CCC2(C)C(C(C)CCCC(C)C)CCC32)C1 (stereo not shown) [Lipidoid 75-OCholB]
[1]; 20 μM Cysteine, 2 h
  encapsulated nile red released: 4.2%
[1]; 20 μM Cysteine, 6 h
  encapsulated nile red released: 6.9%
[1]; 1 mM DTT, 2 h
  encapsulated nile red released: 33.5%
[1]; 1 mM DTT, 6 h
  encapsulated nile red released: 44.0%
[1]; 5 mM DTT, 2 h
  encapsulated nile red released: 61.7%
[1]; 5 mM DTT, 6 h
  encapsulated nile red released: 84.2%
[1]; 10 mM DTT, 2 h
  encapsulated nile red released: 67.4%
[1]; 10 mM DTT, 6 h
  encapsulated nile red released: 86.4%
HeLa cells [2]
  mean fluorescent intensity vs free calcein-treated cells: ~9.4 folds
HeLa cells [3]
  cell viability / dose-dependent cytotoxicity: > 80%
Cy5-RNA; 10/1 weight ratio lipidoid/Cy5-RNA
  RNA molecules complexed with LNPs: 82.9%
Cy5-RNA; [4]
  RNA binding efficacy: 15.5%
  unbound Cy5-RNA: 84.5%
